Consider two molecules from patent US20240226072A1 (Stichting Het Nederlands Kanker Instituut, priority 2022, published 2024).

Data set [1] can be described thus: in vivo. The procedure: Male wild-type, Oatp1a/1b^−/−, transgenic OATP1B1 and OATP1B3 mice in an Oatp1a/1b^−/− background, Oatp1a/1b/2b1b^−/−, Ces1b^−/− and Ces1cdeb^−/− mice were used.
The Accord (20 mg/mL) formulation contains polysorbate 80, citric acid and 395 mg/mL anhydrous ethanol. […] The stock solution was further diluted 5-fold with water to obtain a 2.5 mg/mL dosing solution for oral administration. The vehicle solution only consisted of polysorbate 80, ethanol and water (1:1:8, v/v/v). All dosing solutions were prepared freshly on the day of the experiment.
The termination time point was at 2 hours and 15 minutes. […] The termination, organ collection and sample pretreatment were as described above.
Non-compartmental analysis was performed to estimate the pharmacokinetic parameters by using the software package PK solutions 2.0.2 (SUMMIT, Research Service). The linear trapezoidal rule without extrapolating to infinity was used to calculate the area under the curve (AUC) of the plasma-concentration time curve for all the compounds. The peak plasma concentration (Cmax) and the time to reach peak plasma concentration (Tmax) were obtained directly from the individual raw data. […] GraphPad Prism 9 (GraphPad Software Inc., La Jolla, CA) was used for the statistical analysis and the preparation of the graphs. […]

The nature of data set [2]: Preclinical population PK model (NONMEM) of oral cabazitaxel and ritonavir in Cyp3aXAV mice. As to the method:
Population PK modeling was performed using nonlinear mixed-effects modeling in NONMEM (version 7.5.0, ICON Development Solutions, Ellicott City, MD, USA) with a gfortran compiler and Perl-speaks-NONMEM (version 5.3.0) (Beal SL SL. NONMEM user guides. Ellicott City, Maryland, USA. 1989; Lindbom et al. Comput Methods Programs Biomed. 2005). All models were fit with first order conditional estimation method with η-ε interaction (FOCE-I). Pirana (version 2.9.9) was used as a modeling interface. R (version 4.0.4) was used for data management, visual model evaluation, and analysis and visualization of simulation data.
Due to its predictive value for human hepatic CYP3A metabolism, the PK data obtained in the Cyp3aXAV mouse model was used in the current study (Damoiseaux et al. Pharmaceuticals. 2022). […] Depending on the study, each experiment was terminated by cardiac puncture at either 2 hours or 24 hours after administration.
In the development of the compartmental PK models, inclusion of model elements, such as the number of compartments, inter-individual variability (IIV), covariate effects, and residual random effects were guided by differences in objective function value (OFV), plausibility of parameter estimates, observation of trends in goodness of fit plots, and differences in estimation precision.
This well-stirred liver model assumes the liver to have a fixed volume and blood flow and hepatic clearance (CL) is calculated as a function of hepatic blood flow (Q1) and intrinsic clearance (CLi) following Eq.1.
In the variability model, it was assumed that IIV is log-normally distributed. With Eq. 5 defining the expression for the individual parameter estimate θi.
Where θpop represents population mean parameter estimate and ηi represents its individual deviation, which is distributed following N (0, ω^2). For both PK models, in was assumed that the residual error has both an additive and proportional component. The additive component of the error model was included only for observations which were designated as <LLOQ. Time points for which no quantity of either drug could be detected were discarded. For determination of the LLOQ a signal-to-noise ratio (S/N) of 10 is applied. Thus, a fixed additive error was set for observations <LLOQ which was set to 1/10th of the LLOQ for the respective compound. Consequently, individual model predictions are related to observations following Eq. 6.
Where Cobs,ij represents the observation for the ith subject and the jth measurement. With Cpred,ij the respective prediction. Both the proportional error ep, and additive error εa,ij were assumed to be distributed following N (0, σ^2). LLOQij was included as a data record, which was set to one for observations that were below the limit of quantification.
Evaluation of candidate models was based on plausibility and precision of parameter estimates, observation of trends in goodness-of-fit plots, η and ε-shrinkage, and decreases in OFV for which a change in OFV of 3.84, corresponding to α=0.05, was considered to be significant for hierarchical models. All models were required to achieve successful minimization. The predictive performance of the model was evaluated by simulating 500 datasets using the candidate models from which the 5th, 50th, and 95th percentiles were calculated, along with their 95% confidence intervals, which were compared with the 5th, 50th, and 95th of the observations using a visual predictive check (VPC). The uncertainty in the final parameter estimates was evaluated using a sampling importance-resampling (SIR) algorithm (Dosne et al. J Pharmacokinet Pharmacodyn. 2017).

Data set [3] can be described thus: Carboxylesterase pharmacokinetic experiment: oral cabazitaxel 10 mg/kg, 2 h, in wild-type, Ces1cde−/− and Ces1−/− mice. The format is in vivo. Conditions: for lower plasma AUC0-2h / reduction of Cmax: oral cabazitaxel 10 mg/kg; for Kp at 2 h / Cmax / Tmax / AUC(0-t): male, FVB, mouse, po, 10 mg/kg; for Cmax / Tmax / AUC(0-t): plasma; for AUC(0-t): read-out: AUC0-120min. The procedure: The experiment was terminated by cardiac puncture at 2 hours. The organ collection and sample pretreatment were as described above.
Differences were considered statistically significant when P<0.05. All data are presented as geometric mean±SD.
This experiment was performed in the absence of ritonavir.

For data set [4] the following is noted: Cyp3a−/− compared to wild-type mice; earlier study; cited from earlier work.
The mark [5] stands for this setting: cabazitaxel PK model, allometrically scaled to a 70 kg human.
The mark [6] stands for this setting: inter-individual variability, population PK model, Cyp3aXAV mice.
The mark [7] stands for this setting: Ces1cde−/− compared to wild-type mice.
Setting [8] is: Ces1−/− compared to wild-type mice.
The mark [9] stands for this setting: Ces1cde−/− mice, oral 10 mg/kg cabazitaxel.
The mark [10] stands for this setting: Ces1−/− mice, oral 10 mg/kg cabazitaxel.
The mark [11] stands for this setting: wild-type mice, oral 10 mg/kg cabazitaxel.
Where [12] appears, read: wild-type mice, oral 10 mg/kg cabazitaxel, 2 h.

Structures are written as SMILES. Like-named read-outs stand apart in the source and are kept apart here.

In the case of `CC(C)c1nc(CN(C)C(=O)N[C@H](C(=O)N[C@@H](Cc2ccccc2)C[C@H](O)[C@H](Cc2ccccc2)NC(=O)OCc2cncs2)C(C)C)cs1` [ritonavir], the Tmax – broadly, the time at which the peak concentration occurs – in data set [1] (male, FVB, mouse, in vivo, po, 25 mg/kg) was 1.08 h. This molecule gave a Cbrain in data set [1] (wild-type mice, oral 25 mg/kg ritonavir alone, 2 h 15 min) of 123 ± 57.8 pmol/g.

With `CO[C@H]1C(=O)[C@]2(C)[C@@H](OC)C[C@H]3OC[C@@]3(OC(C)=O)[C@H]2[C@H](OC(=O)c2ccccc2)[C@]2(O)C[C@H](OC(=O)[C@H](O)[C@@H](NC(=O)OC(C)(C)C)c3ccccc3)C(C)=C1C2(C)C` [cabazitaxel], in data set [2] (cabazitaxel PK model), the “Ka, 10 mg/kg, First-order absorption rate constant when co-administered with 10 mg/kg ritonavir” value came to 2.62 h⁻¹. The “Ka, 25 mg/kg, First-order absorption rate constant when co-administered with 25 mg/kg ritonavir” value in data set [2] (cabazitaxel PK model) was found to be 1.22 h⁻¹. Further, in data set [2] (cabazitaxel PK model, Cyp3aXAV mice), the “Ka, First-order absorption rate constant” value was determined as 5.83 h⁻¹. The “CLint, Uninhibited intrinsic clearance” value in data set [2] (cabazitaxel PK model, Cyp3aXAV mice, allometrically scaled to a 70 kg human) came to 106 L/h. In addition, the “Q2, Inter compartment clearance” value in data set [2] (setting [5]) is recorded as 27.7 L/h. Besides, in data set [2] (setting [5]), the “VP, Peripheral volume” value was determined as 613 L. For the same molecule, the “IIV F” value in data set [2] (setting [6]) came to 22.7 CV %. Also, the “IIV Ka” value in data set [2] (setting [6]) came out at 63.4 CV %. Moreover, the “VC, Central volume” value in data set [2] (population PK model, Cyp3aXAV mice, allometrically scaled to a 70 kg human) worked out at 293 L. Moreover, the “lower absolute testis concentration” value came to 2.3 fold in data set [3] (Ces1cde−/− compared to wild-type mice, 2 h) and 2.6 fold in data set [3] (Ces1−/− compared to wild-type mice, 2 h). The “lower plasma AUC0-2h” value in data set [3] (setting [7]) was 6.7 fold; in data set [3] (setting [8]) it was 7.2 fold. In addition, the “reduction of Cmax” value in data set [3] (setting [7]) is reported as 5.4 fold; in data set [3] (setting [8]), 6.0 fold. In addition, the “SIC (% of dose), small intestinal content as percentage of dose” value was 0.16 ± 0.09 % of dose in data set [3] (Ces1cde−/− mice, oral 10 mg/kg cabazitaxel, 2 h); 0.10 ± 0.04 % of dose in data set [3] (Ces1−/− mice, oral 10 mg/kg cabazitaxel, 2 h); 0.11 ± 0.06 % of dose in data set [3] (setting [12]). Besides, the Kp at 2 h amounted to 0.28 ± 0.06 in data set [3] (brain, Ces1cde−/− mice, oral 10 mg/kg cabazitaxel, 2 h, read-out: Brain-to-plasma ratio); 0.43 ± 0.06 in data set [3] (brain, Ces1−/− mice, oral 10 mg/kg cabazitaxel, 2 h, read-out: Brain-to-plasma ratio); 0.04 ± 0.003 in data set [3] (brain, wild-type mice, oral 10 mg/kg cabazitaxel, 2 h, read-out: Brain-to-plasma ratio); 13.1 ± 4.6 in data set [3] (liver, Ces1cde−/− mice, oral 10 mg/kg cabazitaxel, 2 h, read-out: Liver-to-plasma ratio); 14.9 ± 4.49 in data set [3] (liver, Ces1−/− mice, oral 10 mg/kg cabazitaxel, 2 h, read-out: Liver-to-plasma ratio); 1.64 ± 0.59 in data set [3] (liver, wild-type mice, oral 10 mg/kg cabazitaxel, 2 h, read-out: Liver-to-plasma ratio). For the same molecule, the Cmax (in general, the highest concentration seen after dosing) in data set [3] (setting [9]) worked out at 1080 ± 450 nM; in data set [3] (setting [10]) it was 969 ± 219 nM; in data set [3] (setting [11]), 5830 ± 1800 nM. In addition, the Tmax in data set [3] (setting [9]) was 25 min; in data set [3] (setting [10]) it was 32.5 min; in data set [3] (setting [11]), 25 min. In addition, the values for the AUC(0-t) in data set [3] (setting [9]), in data set [3] (setting [10]) and in data set [3] (setting [11]) were 1.03 ± 0.395 µM·h, 0.946 ± 0.22 µM·h and 6.86 ± 1.94 µM·h, respectively. Also, the CLiver in data set [3] (setting [12]) turned out to be 2035 ± 460 pmol/g. The Cbrain in data set [3] (setting [12]) is given as 49.9 ± 5.96 pmol/g. For the same molecule, the “previously observed difference of plasma AUC” value in data set [4] is recorded as “approximately 6 fold”.
